Key:
[1] = system: human mutated 5HT2A receptor, AP-3; experiment: Receptor-mediated inositol phosphate (IP3) accumulation, AP-3; assay type: cell-based; settings: for IP3 % of Control: 10 μM test compound, triplicate, control without test compound
Experimental: On day one, 1×10^7 293 cells per 150 mm plate were plated out. On day two, two reaction tubes were prepared (the proportions to follow for each tube are per plate): tube A was prepared by mixing 20 μg DNA (e.g., pCMV vector; pCMV vector AP-1 cDNA, etc.) in 1.2 ml serum free DMEM (Irvine Scientific, Irvine, Calif.); tube B was prepared by mixing 120 μl lipofectamine (Gibco BRL) in 1.2 ml serum free DMEM. Tubes A and B were then admixed by inversions (several times), followed by incubation at room temperature for 30-45 min. The admixture is referred to as the "transfection mixture". Plated 293 cells were washed with 1×PBS, followed by addition of 10 ml serum free DMEM. 2.4 ml of the transfection mixture was then added to the cells, followed by incubation for 4 hrs at 37° C./5% CO2. On day 3, cells were trypsinized and counted, followed by plating of 1×10^6 cells/well (poly D-lysine treated 12-well plates). Cells were permitted to adhere to the wells, followed by one wash with 1×PBS. Thereafter, 0.5 μCi ^3 H-inositol in 1 ml inositol-free DMEM was added per well. Protocol B.
On day 4, the cells were washed with 0.5 ml PBS and then 0.45 ml of assay medium was added containing inositol-free/serum free media, 10 μM pargyline, 10 mM lithium chloride, or 0.4 ml of assay medium and 50 ul of 10× ketanserin (ket) to a final concentration of 10 μM. The cells were then incubated for 30 minutes at 37° C. Then the cells were washed with 0.5 ml PBS and 200 ul of fresh/ice cold stop solution (1M KOH; 18 mM Na-borate; 3.8 mM EDTA) was added/well. The solution was kept on ice for 5-10 minutes or until the cells were lysed and then neutralized by 200 μl of fresh/ice cold neutralization sol. (7.5% HCL). The lysate was then transferred into 1.5 ml microcentrifuge tubes and 1 ml of chloroform/methanol (1:2) was added/tube. The solution was vortexed for 15 seconds and the upper phase was applied to a Biorad AG1-X8 anion exchange resin (100-200 mesh). The resin was washed with water and 0.9 ml of the upper phase was loaded onto the column. The column was washed with 10 mls of 5 mM myo-inositol and 10 ml of 5 mM Na-borate/60 mM Na-formate. The inositol trisphosphates were eluted into scintillation vials containing 10 ml of scintillation cocktail with 2 ml of 0.1 M formic acid/1 M ammonium formate. The columns were regenerated by washing with 10 ml of 0.1 M formic acid/3M ammonium formate and rinsed twice with dd H2 O and stored at room temperature in water.
Candidate compound identified in the assays of Examples 9a-9c were then evaluated for inositol phosphate accumulation, following the protocol of Example 5 ([…] expressing human mutated 5HT2A receptor, AP-3), modified as follows: tube A was prepared by mixing 16 μg DNA (e.g., pCMV vector; pCMV vector AP-1 cDNA, etc.) in 1.0 ml serum free DMEM (Irvine Scientific, Irvine, Calif.); tube B was prepared by mixing 60 μl lipofectamine (Gibco BRL) in 1.0 ml serum free DMEM. Tubes A and B were then admixed by inversions (several times), followed by incubation at room temperature for 30 min. The admixture is referred to as the "transfection mixture". Plated 293 cells were washed with 10 ml Serum Free DMEM, followed by addition of 11 ml Serum Free DMEM. 2.0 ml of the transfection mixture was then added to the cells, followed by incubation for 5 hrs at 37° C./5% CO2. On day 3, cells were trypsinized and counted, followed by plating of 1×10^6 cells/well (12-well plates). Cells were permitted to adhere to the wells for 8 hrs, followed by one wash with 1×PBS. Thereafter, 0.5 μCi ^3 H-inositol in 1 ml inositol-free DMEM was added per well.
On day 4, the cells were washed with 1.5 ml PBS and then 0.9 ml of assay medium was added containing inositol-free/serum free media, 10 μM pargyline, 10 mM lithium chloride, for 5 min in 37° C./5% CO2 followed by 100 μl addition of candidate compound diluted in the same material. The cells were then incubated for 120 minutes at 37° C. […]

[2] = Bar catalepsy test in rats (extrapyramidal side effect analysis); assay type: in vivo, rat (male Sprague-Dawley); settings: 0.8 mg/kg
[3] = target: T1, endogenous human 5-HT2C receptor (Homo sapiens, UniProt P28335); settings: data not shown
T1 sequence (P28335 33-458): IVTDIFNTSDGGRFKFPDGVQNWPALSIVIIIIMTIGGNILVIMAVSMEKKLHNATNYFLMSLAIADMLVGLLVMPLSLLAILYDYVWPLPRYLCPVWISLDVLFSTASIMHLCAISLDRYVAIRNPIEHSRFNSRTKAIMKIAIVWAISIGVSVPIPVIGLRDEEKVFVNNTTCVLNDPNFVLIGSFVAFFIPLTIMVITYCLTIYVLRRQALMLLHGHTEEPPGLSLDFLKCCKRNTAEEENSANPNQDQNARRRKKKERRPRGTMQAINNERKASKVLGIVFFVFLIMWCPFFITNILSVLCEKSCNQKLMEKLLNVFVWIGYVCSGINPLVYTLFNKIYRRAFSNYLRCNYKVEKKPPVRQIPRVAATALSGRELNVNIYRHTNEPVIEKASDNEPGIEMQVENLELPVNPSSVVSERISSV

Cn1cc(Br)c(-c2cccc(NC(=O)Nc3ccc(OC(F)(F)F)cc3)c2)n1 [Compound 103487, N-[3-(4-bromo-1-methylpyrazol-3-yl)phenyl][{(4-trifluoromethoxy)phenyl}amino]carboxamide]
IC50 ([1]; AP-3, Example 10): 90 nM

CSc1ccc(NC(=O)Nc2cccc(-c3nn(C)cc3Br)c2)cc1 [Compound 116079, N-[3-(4-bromo-1-methylpyrazol-3-yl)phenyl][(4-methylthiophenyl)amino]carboxamide]
IP3 % of Control [1]: 16%

Cn1cc(Br)c(-c2cccc(NC(=O)Nc3ccccc3OC(F)(F)F)c2)n1 [Compound 116087, {[3-(4-bromo-1-methylpyrazol-3-yl)phenyl]amino}-N-[2-(trifluoromethoxy)phenyl]carboxamide]
IP3 % of Control [1]: 11%

Cn1cc(Br)c(-c2cccc(NC(=O)Nc3ccccc3[N+](=O)[O-])c2)n1 [Compound 116089, {[3-(4-bromo-1-methylpyrazol-3-yl)phenyl]amino}-N-(2-nitrophenyl)carboxamide]
IP3 % of Control [1]: 27%

COc1ccc(NC(=O)Nc2cccc(-c3nn(C)cc3Br)c2)cc1 [Compound 116091, {[3-(4-bromo-1-methylpyrazol-3-yl)phenyl]amino}-N-(4-methoxyphenyl)carboxamide]
IP3 % of Control [1]: 12%

Cc1ccccc1NC(=O)Nc1cccc(-c2nn(C)cc2Br)c1 [Compound 116092, {[3-(4-bromo-1-methylpyrazol-3-yl)phenyl]amino}-N-(2-methylphenyl)carboxamide]
IP3 % of Control [1]: 32%

Cn1cc(Br)c(-c2cccc(NC(=O)Nc3ccc(C(F)(F)F)cc3)c2)n1 [Compound 116097, {[3-(4-bromo-1-methylpyrazol-3-yl)phenyl]amino}-N-[4-(trifluoromethyl)phenyl]carboxamide]
IP3 % of Control [1]: 11%

Cn1cc(Br)c(-c2cccc(NC(=O)Nc3cccc(Cl)c3)c2)n1 [Compound 116105, {[3-(4-bromo-1-methylpyrazol-3-yl)phenyl]amino}-N-(3-chlorophenyl)carboxamide]
IP3 % of Control [1]: 11%

Cn1cc(Br)c(-c2cccc(NC(=O)Nc3ccccc3Cl)c2)n1 [Compound 116108, {[3-(4-bromo-1-methylpyrazol-3-yl)phenyl]amino}-N-(2-chlorophenyl)carboxamide]
IP3 % of Control [1]: 6%

CC(C)c1ccc(NC(=O)Nc2cccc(-c3nn(C)cc3Br)c2)cc1 [Compound 116110, {[3-(4-bromo-1-methylpyrazol-3-yl)phenyl]amino}-N-[4-(methylethyl)phenyl]carboxamide]
IP3 % of Control [1]: 7%

COc1cccc(NC(=O)Nc2cccc(-c3nn(C)cc3Br)c2)c1 [Compound 116111, {[3-(4-bromo-1-methylpyrazol-3-yl)phenyl]amino}-N-(3-methoxyphenyl)carboxamide]
IP3 % of Control [1]: 7%

Cc1cccc(NC(=O)Nc2cccc(-c3nn(C)cc3Br)c2)c1 [Compound 116112, {[3-(4-bromo-1-methylpyrazol-3-yl)phenyl]amino}-N-(3-methylphenyl)carboxamide]
IP3 % of Control [1]: 14%

Cn1cc(Br)c(-c2cccc(NC(=O)Nc3ccc(C(C)(C)C)cc3)c2)n1 [Compound 116119, N-[4-(tert-butyl)phenyl]{[3-(4-bromo-1-methylpyrazol-3-yl)phenyl]amino}carboxamide]
IP3 % of Control [1]: 17%

CN(C)c1ccc(NC(=O)Nc2cccc(-c3nn(C)cc3Br)c2)cc1 [Compound 116122, N-[4-(dimethylamino)phenyl]{[3-(4-bromo-1-methylpyrazol-3-yl)phenyl]amino}carboxamide]
IP3 % of Control [1]: 9%

Cc1c(Cl)cc(NC(=O)Nc2cccc(-c3nn(C)cc3Br)c2)cc1Cl [Compound 116138, N-(3,5-dichloro-4-methylphenyl){[3-(4-bromo-1-methylpyrazol-3-yl)phenyl]amino}carboxamide]
IP3 % of Control [1]: 23%

Cn1cc(Br)c(-c2cccc(NC(=O)Nc3ccc(SC(F)(F)F)cc3)c2)n1 [Compound 116139, {[3-(4-bromo-1-methylpyrazol-3-yl)phenyl]amino}-N-[4-(trifluoromethylthio)phenyl]carboxamide]
IP3 % of Control [1]: 12%

Cn1cc(Br)c(-c2cccc(NC(=O)Nc3ccccc3F)c2)n1 [Compound 116144, {[3-(4-bromo-1-methylpyrazol-3-yl)phenyl]amino}-N-(2-fluorophenyl)carboxamide]
IP3 % of Control [1]: 12%

Cn1cc(Br)c(-c2cccc(NC(=O)Nc3ccccc3C(N)=O)c2)n1 [Compound 116145, 2-({[3-(4-bromo-1-methylpyrazol-3-yl)phenyl]amino}carbonylamino)benzamide]
IP3 % of Control [1]: 31%

Cn1cc(Br)c(-c2cccc(NC(=O)Nc3ccc(C#N)cc3)c2)n1 [Compound 116147, {[3-(4-bromo-1-methylpyrazol-3-yl)phenyl]amino}-N-(4-cyanophenyl)carboxamide]
IP3 % of Control [1]: 12%

Cn1cc(Br)c(-c2cccc(NC(=O)Nc3ccccc3C#N)c2)n1 [Compound 116148, {[3-(4-bromo-1-methylpyrazol-3-yl)phenyl]amino}-N-(2-cyanophenyl)carboxamide]
IP3 % of Control [1]: 30%

O=C(CCCN1CCC(O)(c2ccc(Cl)cc2)CC1)c1ccc(F)cc1 [haloperidol, reference compound]
induction of catalepsy [2]: induces catalepsy in rats | time spent on the bar [2]: significant increase in time spent on the bar

CN1CCN2c3ccccc3Cc3ccccc3C2C1 (stereo not shown) [mianserin]
inhibition of serotonin-stimulated [35S]GTPγS binding ([3]; 30 μM mianserin): completely inhibited | effect on serotonin response of [35S]GTPγS binding [3]: inhibits this response | effect on basal constitutive binding of [35S]GTPγS ([3]; no agonist): partial inverse agonist

Source: patent US6150393A (priority 1999, dated 2000)
